In ChEMBL document CHEMBL1145094, “A novel and selective 5-HT2 receptor agonist with ocular hypotensive activity: (S)-(+)-1-(2-aminopropyl)-8,9-dihydropyrano[3,2-e]indole” (J Med Chem, 2003):

Columns and labels:
Monkey [1] = test: Tested for the ability to lower IOP in conscious cynomolgus monkeys with laser-induced ocular hypertension after 3h postdose of the compound; format: functional, Cercopithecidae, Eye
[2] = molecular target: 5-hydroxytryptamine receptor 6 (Homo sapiens, UniProt P50406); test: Inhibitory constant against human 5-hydroxytryptamine 6 receptor using [3H]LSD radioligand
[3] = molecular target: T1, 5-hydroxytryptamine receptor 2A (Rattus norvegicus, UniProt P14842); test: In vitro relative agonist activity against 5-hydroxytryptamine 2A using PI assay in rat vascular smooth muscle cells; format: functional
[4] = molecular target: 5-hydroxytryptamine receptor 3A (Homo sapiens, UniProt P46098); test: Inhibitory constant against 5-hydroxytryptamine 3 receptor using [3H]GR-65630 radioligand
[5] = molecular target: 5-hydroxytryptamine receptor 2B (Homo sapiens, UniProt P41595); test: Inhibitory constant against cloned human 5-hydroxytryptamine 2B receptor using with [125I]- DOI radioligand
[6] = molecular target: 5-hydroxytryptamine receptor 1B (Homo sapiens, UniProt P28222); test: Inhibitory constant against 5-hydroxytryptamine 1B receptor using with [125I]- cyanopindolol radioligand
[7] = molecular target: 5-hydroxytryptamine receptor 2A (Rattus norvegicus) (UniProt P14842); test: In vitro efficacy against rat 5-hydroxytryptamine 2A receptor was determined by using CA+ assay (Emax)
[8] = molecular target: T2, Alpha-1A adrenergic receptor (Rattus norvegicus, UniProt P43140); test: Inhibitory constant against alpha-1A receptor using [3H]-7-MeO prazosin radioligand
T2 sequence (P43140 whole entry): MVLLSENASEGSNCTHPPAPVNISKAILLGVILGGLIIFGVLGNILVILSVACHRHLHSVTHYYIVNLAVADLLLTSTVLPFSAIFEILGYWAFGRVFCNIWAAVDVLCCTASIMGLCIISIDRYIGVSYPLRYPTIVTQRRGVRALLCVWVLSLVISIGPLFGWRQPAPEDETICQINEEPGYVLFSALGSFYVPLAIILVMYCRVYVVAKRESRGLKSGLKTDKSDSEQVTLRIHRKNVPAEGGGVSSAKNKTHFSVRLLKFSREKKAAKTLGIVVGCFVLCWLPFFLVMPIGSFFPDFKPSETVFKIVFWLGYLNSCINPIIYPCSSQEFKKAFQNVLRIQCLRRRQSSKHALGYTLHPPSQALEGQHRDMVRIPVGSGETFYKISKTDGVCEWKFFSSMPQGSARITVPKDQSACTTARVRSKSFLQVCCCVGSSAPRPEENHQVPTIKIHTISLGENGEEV

[9] = molecular target: 5-hydroxytryptamine receptor 5A (Homo sapiens, UniProt P47898); test: Inhibitory constant against human 5-hydroxytryptamine 5A receptor using [3H]LSD radioligand
[10] = molecular target: Sodium-dependent noradrenaline transporter (Homo sapiens, UniProt P23975); test: Inhibitory constant against norepinephrine transporter receptor using [3H]radioligand
[11] = molecular target: T1, 5-hydroxytryptamine receptor 2A; test: In vitro inhibitory constant against [125I]DOI binding to 5-hydroxytryptamine 2A receptor in rat cerebral cortex; format: tissue-based
[12] = molecular target: 5-hydroxytryptamine receptor 1D (Homo sapiens, UniProt P28221); test: Inhibitory constant against human 5-hydroxytryptamine 1D receptor using [3H]5-CT radioligand
[13] = molecular target: 5-hydroxytryptamine receptor 4 (Homo sapiens, UniProt Q13639); test: Inhibitory constant against 5-hydroxytryptamine 4 receptor using [3H]GR-113808 radioligand
Monkey [14] = test: Tested for the ability to lower IOP in conscious cynomolgus monkeys with laser-induced ocular hypertension after 6 hr postdose of the compound; format: functional, Cercopithecidae, Eye
[15] = molecular target: 5-hydroxytryptamine receptor 2A (Rattus norvegicus) (UniProt P14842); test: In vitro efficacy against rat 5-hydroxytryptamine 2A receptor determined by using PI assay (Emax)
[16] = molecular target: T3, 5-hydroxytryptamine receptor 2A (Homo sapiens, UniProt P28223); test: Inhibitory constant against cloned human 5-hydroxytryptamine 2A receptor using with [125I]- DOI radioligand
Monkey [17] = test: Tested for the ability to lower IOP in conscious cynomolgus monkeys with laser-induced ocular hypertension after 1 hr postdose of the compound; format: functional, Cercopithecidae, Eye
[18] = molecular target: T1, 5-hydroxytryptamine receptor 2A; test: In vitro inhibition of [125I]DOI binding to 5-hydroxytryptamine 2A receptor in rat cerebral cortex; format: tissue-based
[19] = molecular target: Alpha-2B adrenergic receptor (Rattus norvegicus, UniProt P19328); test: Inhibitory constant against Alpha-2B adrenergic receptor using [3H]MK-912 radioligand
[20] = molecular target: Sodium-dependent serotonin transporter (Homo sapiens, UniProt P31645); test: Inhibitory constant against human serotonin transporter using [3H]N-Me-citalopram radioligand
[21] = molecular target: T4, 5-hydroxytryptamine receptor 2C (Homo sapiens, UniProt P28335); test: Inhibitory constant against cloned human 5-hydroxytryptamine 2C receptor using with [125I]- DOI radioligand
T4 sequence (P28335 whole entry): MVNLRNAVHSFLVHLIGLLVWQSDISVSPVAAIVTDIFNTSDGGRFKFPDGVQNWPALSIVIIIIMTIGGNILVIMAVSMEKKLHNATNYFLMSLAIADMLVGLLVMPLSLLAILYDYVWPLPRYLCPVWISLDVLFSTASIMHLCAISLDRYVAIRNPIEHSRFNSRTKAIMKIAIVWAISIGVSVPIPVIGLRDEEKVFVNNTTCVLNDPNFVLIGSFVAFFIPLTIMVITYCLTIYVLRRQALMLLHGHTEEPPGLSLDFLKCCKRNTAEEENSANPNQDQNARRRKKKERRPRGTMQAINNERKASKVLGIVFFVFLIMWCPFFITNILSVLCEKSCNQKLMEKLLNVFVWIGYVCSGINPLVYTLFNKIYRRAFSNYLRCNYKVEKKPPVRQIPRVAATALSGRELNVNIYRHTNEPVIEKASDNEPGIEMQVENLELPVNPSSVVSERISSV

[22] = molecular target: Alpha-2A adrenergic receptor (Homo sapiens, UniProt P08913); test: (§1) Inhibitory concentration required against Alpha-2A adrenergic receptor using [3H]clonidine radioligand
[23] = molecular target: T5, Alpha-2C adrenergic receptor (Homo sapiens, UniProt P18825); test: as §1
[24] = molecular target: T6, 5-hydroxytryptamine receptor 1A (Homo sapiens, UniProt P08908); test: In vitro inhibitory concentration required against [3H]8-OH-DPAT binding to cloned human 5-hydroxytryptamine 1A receptor
T6 sequence (P08908 whole entry): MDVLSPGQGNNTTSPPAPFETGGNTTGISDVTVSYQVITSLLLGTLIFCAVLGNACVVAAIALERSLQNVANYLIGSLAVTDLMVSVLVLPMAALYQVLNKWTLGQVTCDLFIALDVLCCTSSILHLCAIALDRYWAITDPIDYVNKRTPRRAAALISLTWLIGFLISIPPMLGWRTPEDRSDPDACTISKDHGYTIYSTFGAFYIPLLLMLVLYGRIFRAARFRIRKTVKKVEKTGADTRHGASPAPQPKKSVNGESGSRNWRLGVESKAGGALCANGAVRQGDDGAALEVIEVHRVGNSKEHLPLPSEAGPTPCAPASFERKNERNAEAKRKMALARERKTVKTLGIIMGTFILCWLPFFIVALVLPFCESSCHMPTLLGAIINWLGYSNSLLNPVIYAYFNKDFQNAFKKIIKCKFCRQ

[25] = molecular target: Alpha-1B adrenergic receptor (Rattus norvegicus, UniProt P15823); test: Inhibitory constant against Alpha-1B adrenergic radioligand
[26] = molecular target: T3, 5-hydroxytryptamine receptor 2A; test: Inhibitory constant determined against cloned human 5-hydroxytryptamine 2A receptor using with [125I]- DOI radioligand
Target sequence in this assay (P28223 whole entry): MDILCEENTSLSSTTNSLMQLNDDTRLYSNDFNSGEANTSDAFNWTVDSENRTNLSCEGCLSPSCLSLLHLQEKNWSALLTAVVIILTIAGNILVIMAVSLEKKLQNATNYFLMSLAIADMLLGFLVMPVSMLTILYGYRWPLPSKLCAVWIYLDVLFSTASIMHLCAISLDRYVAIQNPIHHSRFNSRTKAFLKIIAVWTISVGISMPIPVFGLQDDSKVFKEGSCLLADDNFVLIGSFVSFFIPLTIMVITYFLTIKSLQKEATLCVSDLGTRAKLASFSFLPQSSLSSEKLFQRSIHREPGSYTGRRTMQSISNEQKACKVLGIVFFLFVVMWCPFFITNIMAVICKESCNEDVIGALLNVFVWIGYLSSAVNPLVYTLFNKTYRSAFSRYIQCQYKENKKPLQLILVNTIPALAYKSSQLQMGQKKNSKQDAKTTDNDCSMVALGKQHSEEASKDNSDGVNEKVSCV

[27] = molecular target: T6, 5-hydroxytryptamine receptor 1A; test: Tested for functional response on CHO cells expressing cloned human 5-hydroxytryptamine 1A receptor; format: cell-based
[28] = molecular target: T5, Alpha-2C adrenergic receptor; test: Inhibitory concentration required against Alpha-2C adrenergic receptor using [3H]clonidine radioligand
[29] = molecular target: T2, Alpha-1A adrenergic receptor; test: Inhibitory constant against Alpha-1B adrenergic receptor using [3H]-7-MeO prazosin radioligand
[30] = molecular target: 5-hydroxytryptamine receptor 7 (Homo sapiens, UniProt P34969); test: Inhibitory constant against human 5-hydroxytryptamine 7 receptor using [3H]LSD radioligand
[31] = molecular target: T2, Alpha-1A adrenergic receptor; test: Inhibitory constant against Alpha-1A adrenergic receptor using [3H]-7-MeO prazosin radioligand

Chain of 5-hydroxytryptamine receptor 2B (P41595 whole entry): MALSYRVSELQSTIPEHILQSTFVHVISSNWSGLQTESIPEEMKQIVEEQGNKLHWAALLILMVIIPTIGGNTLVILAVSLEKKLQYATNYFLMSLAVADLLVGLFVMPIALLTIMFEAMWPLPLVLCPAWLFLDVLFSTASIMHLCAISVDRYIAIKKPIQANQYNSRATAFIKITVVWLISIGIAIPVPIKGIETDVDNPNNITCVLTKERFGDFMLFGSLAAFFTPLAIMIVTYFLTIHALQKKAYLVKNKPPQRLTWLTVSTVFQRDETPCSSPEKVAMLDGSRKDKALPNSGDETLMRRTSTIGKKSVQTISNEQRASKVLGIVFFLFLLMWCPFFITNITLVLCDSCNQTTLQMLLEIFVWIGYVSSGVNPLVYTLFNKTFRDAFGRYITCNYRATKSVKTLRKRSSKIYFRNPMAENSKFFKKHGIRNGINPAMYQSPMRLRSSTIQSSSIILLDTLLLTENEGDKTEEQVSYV
Chain of 5-hydroxytryptamine receptor 2A (Rattus norvegicus) (P14842 whole entry): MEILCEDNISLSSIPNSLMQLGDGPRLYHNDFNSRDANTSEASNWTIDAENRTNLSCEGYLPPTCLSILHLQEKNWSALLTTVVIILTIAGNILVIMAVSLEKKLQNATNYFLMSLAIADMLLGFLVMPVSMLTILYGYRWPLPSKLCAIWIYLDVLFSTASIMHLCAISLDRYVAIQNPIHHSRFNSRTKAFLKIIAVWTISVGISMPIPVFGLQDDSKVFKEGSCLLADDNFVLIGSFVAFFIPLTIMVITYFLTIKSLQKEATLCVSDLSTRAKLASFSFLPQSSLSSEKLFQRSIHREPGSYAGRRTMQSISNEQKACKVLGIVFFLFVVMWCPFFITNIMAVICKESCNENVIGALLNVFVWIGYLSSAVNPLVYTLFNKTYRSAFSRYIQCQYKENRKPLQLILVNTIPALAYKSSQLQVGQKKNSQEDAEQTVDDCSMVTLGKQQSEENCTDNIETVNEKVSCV
T1 sequence (P14842 whole entry): as above
Chain of 5-hydroxytryptamine receptor 1B (P28222 whole entry): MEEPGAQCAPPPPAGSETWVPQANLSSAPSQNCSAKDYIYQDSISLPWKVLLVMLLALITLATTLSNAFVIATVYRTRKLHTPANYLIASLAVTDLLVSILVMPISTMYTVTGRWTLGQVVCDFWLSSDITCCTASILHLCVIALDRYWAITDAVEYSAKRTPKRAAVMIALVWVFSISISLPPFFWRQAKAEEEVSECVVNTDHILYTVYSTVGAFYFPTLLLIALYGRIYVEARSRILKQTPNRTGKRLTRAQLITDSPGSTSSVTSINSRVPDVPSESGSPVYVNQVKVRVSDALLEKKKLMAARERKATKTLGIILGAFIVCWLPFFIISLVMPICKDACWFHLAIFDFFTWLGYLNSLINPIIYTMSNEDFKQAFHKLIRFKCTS
Chain of Alpha-2A adrenergic receptor (P08913 whole entry): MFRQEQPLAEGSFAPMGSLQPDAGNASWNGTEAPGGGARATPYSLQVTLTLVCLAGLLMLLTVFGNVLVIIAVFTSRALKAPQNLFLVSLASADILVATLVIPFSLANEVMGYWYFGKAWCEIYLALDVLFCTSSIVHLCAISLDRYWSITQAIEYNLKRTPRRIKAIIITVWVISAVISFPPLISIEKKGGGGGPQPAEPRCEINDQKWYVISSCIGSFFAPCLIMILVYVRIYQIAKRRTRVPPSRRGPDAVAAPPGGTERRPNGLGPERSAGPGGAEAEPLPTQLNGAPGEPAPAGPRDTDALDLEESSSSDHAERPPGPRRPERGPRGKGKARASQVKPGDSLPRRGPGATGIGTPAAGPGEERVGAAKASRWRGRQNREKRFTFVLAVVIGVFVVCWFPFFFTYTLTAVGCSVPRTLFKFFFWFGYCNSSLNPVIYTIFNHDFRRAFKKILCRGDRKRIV
Chain of 5-hydroxytryptamine receptor 3A (P46098 whole entry): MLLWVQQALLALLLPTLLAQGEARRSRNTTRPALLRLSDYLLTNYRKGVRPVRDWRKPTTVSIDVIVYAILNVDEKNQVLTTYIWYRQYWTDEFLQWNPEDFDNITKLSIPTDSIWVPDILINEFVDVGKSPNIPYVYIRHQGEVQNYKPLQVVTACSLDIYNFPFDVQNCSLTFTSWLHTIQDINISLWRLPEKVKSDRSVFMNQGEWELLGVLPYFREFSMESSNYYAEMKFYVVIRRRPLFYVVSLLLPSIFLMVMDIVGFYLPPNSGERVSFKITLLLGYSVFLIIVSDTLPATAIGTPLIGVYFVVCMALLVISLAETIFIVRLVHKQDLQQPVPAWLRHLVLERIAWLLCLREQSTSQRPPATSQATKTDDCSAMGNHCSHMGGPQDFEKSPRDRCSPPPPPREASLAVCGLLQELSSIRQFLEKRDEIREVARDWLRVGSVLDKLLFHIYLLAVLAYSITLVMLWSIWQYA
Chain of Alpha-2B adrenergic receptor (P19328 whole entry): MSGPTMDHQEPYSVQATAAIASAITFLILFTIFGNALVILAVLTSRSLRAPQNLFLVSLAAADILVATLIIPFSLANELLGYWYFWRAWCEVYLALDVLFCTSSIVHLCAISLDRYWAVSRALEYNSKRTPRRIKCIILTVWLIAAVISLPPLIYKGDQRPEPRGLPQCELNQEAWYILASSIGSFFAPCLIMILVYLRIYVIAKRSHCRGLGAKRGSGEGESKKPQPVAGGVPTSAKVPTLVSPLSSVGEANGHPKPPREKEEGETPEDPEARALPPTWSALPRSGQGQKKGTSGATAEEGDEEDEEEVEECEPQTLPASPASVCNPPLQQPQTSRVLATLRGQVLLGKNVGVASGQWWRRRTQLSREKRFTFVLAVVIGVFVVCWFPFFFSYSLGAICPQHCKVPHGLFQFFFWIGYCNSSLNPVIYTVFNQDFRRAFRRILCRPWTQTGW
Chain of 5-hydroxytryptamine receptor 4 (Q13639 whole entry): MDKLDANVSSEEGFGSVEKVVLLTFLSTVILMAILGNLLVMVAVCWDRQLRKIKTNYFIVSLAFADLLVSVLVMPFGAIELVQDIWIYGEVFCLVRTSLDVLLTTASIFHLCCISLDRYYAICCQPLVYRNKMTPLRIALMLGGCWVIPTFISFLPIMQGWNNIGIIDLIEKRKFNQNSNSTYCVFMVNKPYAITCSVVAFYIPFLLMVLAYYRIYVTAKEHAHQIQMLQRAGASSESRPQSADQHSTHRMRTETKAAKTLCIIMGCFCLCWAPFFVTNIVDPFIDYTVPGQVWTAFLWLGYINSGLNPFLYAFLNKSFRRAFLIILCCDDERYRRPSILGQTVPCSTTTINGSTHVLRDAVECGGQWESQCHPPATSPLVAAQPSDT
T5 sequence (P18825 whole entry): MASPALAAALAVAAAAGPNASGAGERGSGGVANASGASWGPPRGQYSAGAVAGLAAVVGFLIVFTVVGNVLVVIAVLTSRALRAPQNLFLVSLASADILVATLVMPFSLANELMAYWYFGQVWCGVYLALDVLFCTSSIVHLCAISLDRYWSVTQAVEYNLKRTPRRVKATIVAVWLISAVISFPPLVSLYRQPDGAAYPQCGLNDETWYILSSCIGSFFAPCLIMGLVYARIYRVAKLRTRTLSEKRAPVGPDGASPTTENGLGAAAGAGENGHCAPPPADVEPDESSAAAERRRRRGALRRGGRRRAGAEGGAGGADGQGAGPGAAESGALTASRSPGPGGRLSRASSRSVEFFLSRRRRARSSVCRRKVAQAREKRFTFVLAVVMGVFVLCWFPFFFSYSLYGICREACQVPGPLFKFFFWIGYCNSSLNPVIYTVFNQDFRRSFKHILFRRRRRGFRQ
Chain of Sodium-dependent serotonin transporter (P31645 whole entry): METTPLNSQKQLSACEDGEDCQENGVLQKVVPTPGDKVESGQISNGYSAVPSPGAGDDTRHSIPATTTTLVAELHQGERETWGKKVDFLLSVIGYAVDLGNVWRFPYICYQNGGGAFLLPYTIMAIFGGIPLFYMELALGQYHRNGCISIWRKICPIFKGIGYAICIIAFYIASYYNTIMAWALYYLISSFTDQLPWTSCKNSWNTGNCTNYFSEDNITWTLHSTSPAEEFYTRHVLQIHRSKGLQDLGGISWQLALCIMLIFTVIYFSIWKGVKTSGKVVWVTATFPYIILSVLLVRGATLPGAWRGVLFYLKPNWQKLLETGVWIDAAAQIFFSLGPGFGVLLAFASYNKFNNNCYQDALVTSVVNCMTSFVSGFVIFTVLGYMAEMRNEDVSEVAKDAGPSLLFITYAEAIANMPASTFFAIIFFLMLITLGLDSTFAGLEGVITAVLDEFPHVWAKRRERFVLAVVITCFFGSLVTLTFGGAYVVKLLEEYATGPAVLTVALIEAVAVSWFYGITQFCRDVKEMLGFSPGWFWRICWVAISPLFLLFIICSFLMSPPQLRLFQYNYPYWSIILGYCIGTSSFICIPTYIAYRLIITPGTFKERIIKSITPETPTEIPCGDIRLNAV

C[C@H](N)Cc1c[nH]c2ccc3c(c12)CCCO3 was tested, and the Reduction (Monkey [1]) was under 33.2%, the Ki [2] was 2200 nM and the EC50 [3] was 80.1 nM. It also gave a Ki [4] of over 10000 nM, a Ki [5] of 5.3 nM and a Ki [6] of 3300 nM. For the same molecule, the Efficacy [7] was 103%, the Ki [8] was over 10000 nM and the Ki [9] was over 10000 nM. For the same molecule, the Ki [10] was over 10000 nM, the Ki [11] was 0.2 nM and the Ki [12] was over 10000 nM. For the same molecule, the Ki [13] was 1700 nM, the Reduction (Monkey [14]) was under 37% and the Efficacy [15] was 90%. The Ki [16] was 2 nM, the Reduction (Monkey [17]) was under 18.1% and the IC50 [18] was 0.5 nM. For the same molecule, the Ki [19] was over 10000 nM, the Ki [20] was over 10000 nM and the Ki [21] was 3.4 nM. For the same molecule, the IC50 [22] was 19000 nM, the IC50 [23] was 14000 nM and the IC50 [24] was over 10000 nM. It also gave a Ki [25] of over 10000 nM.
CN(C)CCc1c[nH]c2ccc3c(c12)CCCO3 showed a Ki [5] of 26 nM, an Efficacy [7] of 47% and an Efficacy [15] of 63%. For the same molecule, the Ki [26] was 17 nM, the Ki [21] was 16 nM and the IC50 [24] was 562 nM.
CC(N)Cc1c[nH]c2ccc3c(c12)CCCO3 (stereo not given) was tested, and the Reduction (Monkey [1]) was under 28%, the Ki [2] was 400 nM and the Ki [4] was over 10000 nM. For the same molecule, the Ki [5] was 13 nM, the Ki [6] was over 10000 nM and the Efficacy [7] was 97%. For the same molecule, the Ki [9] was 1900 nM, the Ki [10] was over 30000 nM and the Ki [11] was 0.3 nM. It also gave a Ki [13] of 1800 nM, a Reduction (Monkey [14]) of under 22.9% and an Efficacy [15] of 81%. It also gave a Ki [16] of 3.6 nM, a Reduction (Monkey [17]) of under 16% and an IC50 [18] of 0.7 nM. For the same molecule, the EC50 [27] was over 10000 nM, the Ki [19] was 10000 nM and the Ki [20] was over 10000 nM. It also gave a Ki [21] of 5.5 nM, an IC50 [28] of over 30000 nM and an IC50 [22] of over 10000 nM. For the same molecule, the Ki [29] was over 30000 nM, the IC50 [24] was 10900 nM and the Ki [30] was 24000 nM. It also gave a Ki [31] of over 30000 nM.
With CC(N)Cc1c[nH]c2ccc(O)cc12 (stereo not given) the Ki [5] was 13 nM, the Efficacy [7] was 99% and the Efficacy [15] was 98%. For the same molecule, the Ki [16] was 12 nM, the EC50 [27] was 378 nM and the IC50 [24] was 19.6 nM.
With COc1cc(C[C@@H](C)N)c(OC)cc1I the Reduction (Monkey [1]) was 25.3%, the EC50 [3] was 27.7 nM and the Ki [5] was 18 nM. For the same molecule, the Efficacy [7] was 33%, the Ki [11] was 0.1 nM and the Reduction (Monkey [14]) was 34.4%. For the same molecule, the Reduction (Monkey [17]) was 11%, the IC50 [18] was 0.4 nM and the Ki [21] was 4 nM.
C[C@@H](N)Cc1c[nH]c2ccc3c(c12)CCCO3 was tested, and the Reduction (Monkey [1]) was under 24.8%, the EC50 [3] was 292 nM and the Ki [5] was 19 nM. For the same molecule, the Efficacy [7] was 71%, the Ki [11] was 0.5 nM and the Reduction (Monkey [14]) was under 32.5%. The Efficacy [15] was 83%, the Reduction (Monkey [17]) was under 12.7% and the IC50 [18] was 1.5 nM. The Ki [26] was 3.6 nM, the Ki [21] was 20 nM and the IC50 [24] was 8650 nM.
With NCCc1c[nH]c2ccc3c(c12)CCCO3 the EC50 [3] was 181 nM, the Ki [5] was 14 nM and the Efficacy [7] was 99%. For the same molecule, the Ki [11] was 0.6 nM, the Efficacy [15] was 99% and the IC50 [18] was 1.8 nM. The Ki [26] was 4.9 nM, the Ki [21] was 6.3 nM and the IC50 [24] was 287 nM.
With CC(N)Cc1cn(C)c2ccc3c(c12)CCCO3 (stereo not given) the Reduction (Monkey [1]) was under 28%, the EC50 [3] was 134 nM and the Ki [5] was 11 nM. It also gave an Efficacy [7] of 79%, a Ki [11] of 0.2 nM and a Reduction (Monkey [14]) of under 26.1%. It also gave an Efficacy [15] of 102%, a Ki [16] of 28 nM and a Reduction (Monkey [17]) of under 18.8%. For the same molecule, the IC50 [18] was 0.5 nM, the EC50 [27] was over 10000 nM and the Ki [21] was 2.7 nM. The IC50 [24] was 12200 nM.
COc1ccc2[nH]cc(CC(C)N)c2c1 (stereo not given) showed a Reduction (Monkey [1]) of 35.2%, an EC50 [3] of 285 nM and a Ki [5] of 7.8 nM. The Efficacy [7] was 96%, the Ki [11] was 1.6 nM and the Reduction (Monkey [14]) was 33.4%. For the same molecule, the Efficacy [15] was 107%, the Ki [16] was 4.6 nM and the Reduction (Monkey [17]) was 21.6%. For the same molecule, the IC50 [18] was 4.4 nM, the EC50 [27] was 564 nM and the Ki [21] was 8.3 nM. The IC50 [24] was 86.4 nM.
Cn1cc(CCN)c2c3c(ccc21)OCCC3 gave an EC50 [3] of 213 nM, an Efficacy [7] of 70% and a Ki [11] of 1.1 nM. It also gave an Efficacy [15] of 96%, an IC50 [18] of 2.8 nM and a Ki [26] of 8.2 nM. It also gave an IC50 [24] of 8410 nM.
